The assay concerns TEAD-dependent transcription. The experiment in a line: Inhibitor activity against TEAD-dependent transcription in a cell-based reporter assay (MSTO-211H+12XGTIIC luciferase). The settings on record: Homo sapiens; MSTO-211H+12XGTIIC cells, 24 hours incubation, luciferase luminescence normalized to cell viability fluorescence, geometric mean; read-out: MSTO-211H GMean IC50 (uM) Cell Assay Reporter Cell Variant: TEAD. The text has this: Determine Inhibitor Activity Against TEAD-Dependent Transcription in a Cell-Based Reporter Assay
The human mesothelioma cell line MSTO-211H was stably transfected with a pGL4.21 plasmid containing a synthetic promoter with 12 copies of the GTIIC TEAD response element that drives the expression of a luciferase reporter gene^1 using Lipofectamine transfection reagent (Thermo Fisher). Transfected cells were selected using puromycin and single cell clones expressing this construct (referred to as MSTO-211H+12XGTIIC) were generated by limiting dilution. MSTO-211H cells was characterized by genetic alterations in key components of the Hippo pathway^2, resulting in up-regulation of YAP/TEAD-mediated transcription. […] To evaluate TEAD inhibitors, the MSTO-211H+12XGTIIC cell line was seeded in a 96-well plate in 50 μL of culture media at 1×10^4 cells per well and incubated at 37° C. overnight. Serial dilutions of compounds (in total volume of 50 μL of culture media) were added to the cells and incubated at 37° C. for 24 hours. Each plate included cells treated with DMSO as high controls and cells treated with 20 μM of the reference compound K-975 (a known TEAD inhibitor)^3 as low controls. Cell viability was assayed by the addition of 25 μL of CellTiter-Fluor reagent (Promega) followed by a 30-minute incubation at 37° C. and quantification of the fluorescence signal (Ex400/Em505). Subsequently, luciferase expression was assayed by the addition of 25 μL of ONE-Glo reagent (Promega) followed by a 10-minute incubation at room temperature and quantification of the luminescence signal. The luminescence signal was normalized to the fluorescence signal to correct for any loss in cell viability over the 24-hour compound incubation period. The percentage of inhibition of normalized luminescence signal, indicative of compound-mediated inhibition of TEAD-dependent transcription, at individual compound concentrations relative to high and low controls was calculated. The data were analyzed by using nonlinear regression to generate IC50 values for individual compounds.

For the molecule `C=CC(=O)N1CCc2ccc(OC3CC4CCC3C4)cc2C1` (centres unmarked) [P-0076, 1-(7-(bicyclo[2.2.1]heptan-2-yloxy)-3,4-dihydroisoquinolin-2(1H)-yl)prop-2-en-1-one], the IC50 was in the range of 0.001 to 0.5 µM.

For `C=CC(=O)N1CCc2ccc(OC3CCC4(CC3)CC4)cc2C1` [P-0077, 1-(7-(spiro[2.5]octan-6-yloxy)-3,4-dihydroisoquinolin-2(1H)-yl)prop-2-en-1-one], the concentration for half-maximal inhibition (IC50) lay within 0.001 to 0.5 µM.

In the case of `C=CC(=O)N1CCc2ccc(OCc3ccc(C(F)(F)F)cc3)cc2C1` [P-0078, 1-(7-((4-(trifluoromethyl)benzyl)oxy)-3,4-dihydroisoquinolin-2(1H)-yl)prop-2-en-1-one], the IC50 lay within 0.5 to 20 µM.

For `C=CC(=O)N1CCc2ccc(OCc3ccc(C(F)(F)F)nc3)cc2C1` [P-0079, 1-(7-((6-(trifluoromethyl)pyridin-3-yl)methoxy)-3,4-dihydroisoquinolin-2(1H)-yl)prop-2-en-1-one], the 50% inhibitory concentration (IC50) is over 20 µM.

With `C=CC(=O)N1CCc2ccc(OCC3CCC(F)(F)CC3)cc2C1` [P-0080, 1-(7-((4,4-difluorocyclohexyl)methoxy)-3,4-dihydroisoquinolin-2(1H)-yl)prop-2-en-1-one], the IC50 lay in the range of 0.001 to 0.5 µM.

On to `C=CC(=O)N1CCc2ccc(OCc3cc(C)on3)cc2C1` [P-0081, 1-(7-((5-methylisoxazol-3-yl)methoxy)-3,4-dihydroisoquinolin-2(1H)-yl)prop-2-en-1-one], for which the IC50 was over 20 µM.

With `C=CC(=O)N1CCc2ccc(OC3CCC(C)(C)CC3)cc2C1` [P-0082, 1-(7-((4,4-dimethylcyclohexyl)oxy)-3,4-dihydroisoquinolin-2(1H)-yl)prop-2-en-1-one], the half-inhibitory concentration (IC50) lay in the range of 0.001 to 0.5 µM.

On to `C=CC(=O)N1CCc2ccc(OCc3cccc(C(F)(F)F)c3)cc2C1` [P-0083, 1-(7-((3-(trifluoromethyl)benzyl)oxy)-3,4-dihydroisoquinolin-2(1H)-yl)prop-2-en-1-one], for which the IC50 was in the range of 0.001 to 0.5 µM.

As to `C=CC(=O)N1CCc2ccc(OC3CCS(=O)(=O)CC3)cc2C1` [P-0084, 1-(7-((1,1-dioxidotetrahydro-2H-thiopyran-4-yl)oxy)-3,4-dihydroisoquinolin-2(1H)-yl)prop-2-en-1-one], the IC50 fell in the range of 0.001 to 0.5 µM.

As for `C=CC(=O)N1CCc2ccc(OC3CCC(F)(F)C3)cc2C1` (centres unmarked) [P-0085, 1-(7-((3,3-difluorocyclopentyl)oxy)-3,4-dihydroisoquinolin-2(1H)-yl)prop-2-en-1-one], the half-inhibitory concentration (IC50) is 0.001 to 0.5 µM.

`C=CC(=O)N1CCc2ccc(O[C@@H]3C[C@@H]4[C@H](C3)C4(F)F)cc2C1` [P-0086, 1-(7-(((1R,3s,5S)-6,6-difluorobicyclo[3.1.0]hexan-3-yl)oxy)-3,4-dihydroisoquinolin-2(1H)-yl)prop-2-en-1-one]: the IC50 was in the range of 0.001 to 0.5 µM.

`C=CC(=O)N1CCc2ccc(NC3CC4C(C3)C4(F)F)cc2C1` (centres unmarked) [P-0087, 1-(7-((6,6-difluorobicyclo[3.1.0]hexan-3-yl)amino)-3,4-dihydroisoquinolin-2(1H)-yl)prop-2-en-1-one]: the IC50 lay in the range of 0.001 to 0.5 µM.

Regarding `C=CC(=O)N1CCc2ccc(OCc3ccccc3C(F)(F)F)cc2C1` [P-0088, 1-(7-((2-(trifluoromethyl)benzyl)oxy)-3,4-dihydroisoquinolin-2(1H)-yl)prop-2-en-1-one], the 50% inhibitory concentration (IC50) lay within 0.001 to 0.5 µM.

Consider `C=CC(=O)N1CCc2ccc(NCc3ccccc3)cc2C1` [P-0089, 1-(7-(benzylamino)-3,4-dihydroisoquinolin-2(1H)-yl)prop-2-en-1-one], for which the IC50 lay within 0.001 to 0.5 µM.

Take `C=CC(=O)N1CCc2ccc(NCc3cccc(F)c3)cc2C1` [P-0090, 1-(7-((3-fluorobenzyl)amino)-3,4-dihydroisoquinolin-2(1H)-yl)prop-2-en-1-one]: the IC50 lay in the range of 0.001 to 0.5 µM.

Regarding `C=CC(=O)N1CCc2ccc(OCc3cccc(F)c3)cc2C1` [P-0091, 1-(7-((3-fluorobenzyl)oxy)-3,4-dihydroisoquinolin-2(1H)-yl)prop-2-en-1-one], the 50% inhibitory concentration (IC50) fell in the range of 0.001 to 0.5 µM.

`C=CC(=O)N1CCc2ccc(Oc3cccc(C#N)c3)cc2C1` [P-0092, 3-((2-acryloyl-1,2,3,4-tetrahydroisoquinolin-7-yl)oxy)benzonitrile]: the IC50 was 0.001 to 0.5 µM.

Turning to `C=CC(=O)N1Cc2cc(Oc3ccc(C(F)(F)F)nc3)ccc2C(C)C1` (centres unmarked) [P-0093, 1-(4-methyl-7-((6-(trifluoromethyl)pyridin-3-yl)oxy)-3,4-dihydroisoquinolin-2(1H)-yl)prop-2-en-1-one], the half-maximal inhibitory concentration (IC50) is 0.001 to 0.5 µM.

`C=CC(=O)N1Cc2cc(OC3CCC(F)(F)CC3)ccc2C(C)C1` (centres unmarked) [P-0094, 1-(7-((4,4-difluorocyclohexyl)oxy)-4-methyl-3,4-dihydroisoquinolin-2(1H)-yl)prop-2-en-1-one]: the IC50 lay in the range of 0.001 to 0.5 µM.

Consider `C=CC(=O)N1CCc2c(F)cc(OC3CCC(F)(F)CC3)cc2C1` [P-0095, 1-(7-((4,4-difluorocyclohexyl)oxy)-5-fluoro-3,4-dihydroisoquinolin-2(1H)-yl)prop-2-en-1-one], for which the IC50 was 0.001 to 0.5 µM.

As to `C=CC(=O)N1CCc2ccc(OCc3ccccc3F)cc2C1` [P-0096, 1-(7-((2-fluorobenzyl)oxy)-3,4-dihydroisoquinolin-2(1H)-yl)prop-2-en-1-one], the IC50 was over 20 µM.

For the molecule `C=CC(=O)N1CCc2ccc(NC3CCC4(CC3)CC4)cc2C1` [P-0097, 1-(7-(spiro[2.5]octan-6-ylamino)-3,4-dihydroisoquinolin-2(1H)-yl)prop-2-en-1-one], the IC50 lay within 0.5 to 20 µM.

As to `C=CC(=O)N1CCc2cc(F)c(Oc3ccc(C(F)(F)F)c(F)c3)cc2C1` [P-0098, 1-(6-fluoro-7-(3-fluoro-4-(trifluoromethyl)phenoxy)-3,4-dihydroisoquinolin-2(1H)-yl)prop-2-en-1-one], the concentration for half-maximal inhibition (IC50) fell in the range of 0.001 to 0.5 µM.

As for `C=CC(=O)N1CCc2cc(C)c(Oc3ccc(C(F)(F)F)c(F)c3)cc2C1` [P-0099, 1-(7-(3-fluoro-4-(trifluoromethyl)phenoxy)-6-methyl-3,4-dihydroisoquinolin-2(1H)-yl)prop-2-en-1-one], the IC50 lay within 0.001 to 0.5 µM.

For the molecule `C=CC(=O)N1CCc2ccc(NCC3CCC(F)(F)CC3)cc2C1` [P-0100, 1-(7-(((4,4-difluorocyclohexyl)methyl)ami-no)-3,4-dihydroisoquinolin-2(1H)-yl)prop-2-en-1-one], the IC50 was 0.001 to 0.5 µM.

In the case of `C=CC(=O)N1CCc2c(F)cc(Oc3ccc(C(F)(F)F)nc3)cc2C1` [P-0101, 1-(5-fluoro-7-((6-(trifluoromethyl)pyridin-3-yl)oxy)-3,4-dihydroisoquinolin-2(1H)-yl)prop-2-en-1-one], the IC50 is 0.001 to 0.5 µM.

For the molecule `C=CC(=O)N1CCc2cc(F)c(OC3CCC(F)(F)CC3)cc2C1` [P-0102, 1-(7-((4,4-difluorocyclohexyl)oxy)-6-fluoro-3,4-dihydroisoquinolin-2(1H)-yl)prop-2-en-1-one], the half-maximal inhibitory concentration (IC50) was 0.001 to 0.5 µM.

`C=CC(=O)N1CCc2cc(F)c(Oc3ccc(C(F)(F)F)cc3)cc2C1` [P-0103, 1-(6-fluoro-7-(4-(trifluoromethyl)phenoxy)-3,4-dihydroisoquinolin-2(1H)-yl)prop-2-en-1-one]: the IC50 was in the range of 0.001 to 0.5 µM.

For `C=CC(=O)N1CCc2ccc(Cc3ccc(C(F)(F)F)nc3)cc2C1` [P-0104, 1-(7-((6-(trifluoromethyl)pyridin-3-yl)methyl)-3,4-dihydroisoquinolin-2(1H)-yl)prop-2-en-1-one], the IC50 lay within 0.001 to 0.5 µM.

(Values after patent publication US20240174659A1, “COMPOUNDS AND METHODS FOR YAP/TEAD MODULATION AND INDICATIONS THEREFOR” (Opna Bio SA, priority 2021, published 2024).)
